This is an account of results in PubChem BioAssay (NCI).

SMILES strings stand for the structures. Where “and” joins values, the source holds several entries; their conditions need not be identical. Identical values can stand only once.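 Cultured in 96-well plates, cells were exposed to test compound for 48 hours across five concentrations. Abbreviation: GI50, concentration required for 50% inhibition of growth. The concentration for full growth arrest is given as TGI.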 Bounds are passed on as bounds.

Common to all, as to experiment: inhibition of tumour cell growth, NCI panel, 48 h
Test [1] has as its system 786-0 renal.
The test system of test [2] is ACHN renal.
For test [3], the system named is HT29 colon.
The test system of test [4] is MOLT-4 leukemia.
In test [5] the test system is RXF 393 renal.
Test [6] has as its system SF-295 CNS.
The test system of test [7] is SF-539 CNS.
Test [8] relates to SNB-19 CNS.
For test [9], the system named is U251 CNS.
In test [10] the test system is PC-3 prostate.

In the case of `S=c1[nH]c(=S)c2sc(=S)n(-c3ccccc3)c2[nH]1`, the TGI in test [1], in test [2], in test [3], in test [4], in test [5] and in [6] was more than 100 µM throughout. Besides, the TGI in [7], in [8] and in [9] was more than 100 µM each time.
`C[C@@H]1O[C@@H](O[C@@H]2[C@@H](O)[C@H](OCCc3ccc(O)c(O)c3)O[C@H](COC(=O)/C=C/c3ccc(O)c(O)c3)[C@H]2O)[C@H](O)[C@H](O)[C@H]1O`: the GI50 is 58.4 µM in [1]; more than 100 µM in test [2]; more than 100 µM in test [4]; 0.524 µM in test [10]; more than 100 µM in test [6]; more than 100 µM in test [7]. Also, the values for the GI50 in test [8] and in test [9] were more than 100 µM and 49.2 µM, respectively. Moreover, the TGI in test [1], in test [2], in test [4], in test [10], in test [6] and in [7] was more than 100 µM throughout. Further, the TGI in test [8] and in test [9] was more than 100 µM throughout.
As for `c1nc2cscc2c2cscc12`, the TGI in [1], in test [2], in [3], in test [4], in test [5] and in test [6] was more than 100 µM throughout. Besides, the TGI in test [7], in [8] and in [9] was more than 100 µM each time.
For the compound `CCOc1cc2c(cnc3c4cc(OC)c(OC)cc4ccc23)cc1OC`, the TGI in test [1], in [2], in test [3], in test [4], in [6] and in [7] was more than 100 µM each time. Further, the TGI in test [8] and in [9] was more than 100 µM each time.
Turning to `COC(=O)NC/C=C\c1nc(CC/C=C\C(=O)OC2CC3CC(=O)O[C@H](/C=C/CC(C)C)C[C@H]4CCC(C)C(C[C@H](OC)CC(C2)O3)O4)co1` (stereo not given in full), the GI50 was less than 0.01 µM in test [1]; 0.742 µM in [3]; 0.218 µM in test [10]; less than 0.01 µM in test [6]; less than 0.01 µM in [7]; 23 µM in test [8]. Also, in test [9], the GI50 was 1.42 µM. Besides, the TGI in test [1] was more than 100 µM; in test [3] it was more than 100 µM; in test [10], more than 100 µM; in test [6], 61.5 µM; in test [7], 0.114 µM; in test [8], more than 100 µM. In test [9], this compound registered a TGI of more than 100 µM.
As for `N#CCc1ccc(C(C#N)/C(CCCC(=O)Nc2cccc([N+](=O)[O-])c2)=N\NC(=O)NN)cc1` (stereo not given), the TGI in test [1], in test [2], in [3], in [4], in [5] and in test [6] was more than 100 µM each time. The TGI in test [7], in [8] and in test [9] was more than 100 µM throughout.
Regarding `NCCCN(CCCN)CCCNCc1c2ccccc2c(CNCCCN(CCCN)CCCN)c2ccccc12`, the TGI in test [1] was 23.4 µM; in test [2], 25.7 µM; in test [3], 37.5 µM; in test [4], 69.8 µM; in [5], 45.2 µM; in test [6], 27.8 µM. For the same compound, the TGI stood at 30.2 µM in test [7], 30.6 µM in test [8] and 33 µM in [9].
Regarding `Nc1nc(Nc2ccc3c(c2)CC[C@@H](N2CCCC2)CC3)nn1-c1cc2c(nn1)-c1ccccc1CCC2`, the GI50 in test [1] was 1.55 µM; in test [2] it was 0.878 µM; in test [3], 1.08 µM; in test [4], 0.82 µM; in [6] it was 1.88 µM; in test [8], 1.83 µM. The TGI in test [1] is 3.28 µM; in [2], 2.11 µM; in [3], 4.01 µM; in test [4], 3.63 µM; in [6], 3.51 µM; in test [8], 3.45 µM.
For the compound `O=C(O)c1c2c(c(C(=O)O)c3ccccc13)-c1ccccc1-2`, the TGI in test [1] is more than 100 µM; in [2] it was more than 100 µM; in test [3] it was more than 100 µM; in [4], more than 100 µM; in test [5], 66.9 µM; in test [6], more than 100 µM. Also, the results for the TGI in test [7], in [8] and in test [9] were 85.5 µM, more than 100 µM and more than 100 µM, respectively.
For `CC(=O)OCSc1ncnc2c1ncn2CN1CCOCC1`, the TGI is more than 100 µM in test [1]; more than 100 µM in test [2]; 94.8 µM in test [3]; more than 100 µM in [4]; more than 100 µM in [5]; more than 100 µM in [6]. Also, the TGI in [7], in [8] and in test [9] was more than 100 µM throughout.
As to `CC(C)=CC(=O)Oc1ccc([N+](=O)[O-])cc1`, the TGI in test [1], in [2], in test [3], in [4], in test [5] and in test [6] was more than 100 µM in each case. Moreover, the TGI in [7], in test [8] and in test [9] was more than 100 µM in each case.
In the case of `Cc1cccc(C)c1NC(=O)CCCC(=O)CC(=O)/C=C/c1ccccc1`, the TGI in [1], in [2], in test [3], in test [4], in [5] and in test [7] was more than 100 µM each time. Also, the TGI in [8] and in test [9] was more than 100 µM in each case.
As for `C1CNCCNCCNCCN1`, the TGI in test [1], in test [2], in [3], in test [4], in test [5] and in [6] was more than 100 µM each time. Besides, the TGI in test [7] was more than 100 µM; in test [8], more than 100 µM; in test [9], 81.5 µM.
`COc1ccc(C2S/C(=C\c3cc(OC)c(OC)c(OC)c3)C(=O)N2NC(=O)Cc2ccccc2)cc1` (stereo not given): the TGI in test [1], in test [2], in test [3], in [4], in test [5] and in test [6] was more than 100 µM throughout. Moreover, the TGI in [7] and in [9] was more than 100 µM each time.
`S=c1nc(Oc2ccc(Cl)c(Cl)c2)[nH]c(=S)[nH]1`: the TGI is more than 100 µM in test [1]; more than 82.2 µM in test [2]; more than 89.7 µM in test [3]; more than 69.6 µM in test [4]; more than 100 µM in test [6]; more than 73.1 µM in test [7]. The TGI in [8] was more than 100 µM; in [9], 99.4 µM.
Regarding `CC(=O)NC1=C(Nc2ccc(C)cc2)C(=O)c2ccccc2C1=O`, the TGI in test [1] was 39.3 µM; in test [2], 47.5 µM; in [3], 31.9 µM; in test [4], 56.5 µM; in test [5] it was more than 75 µM; in test [6] it was 54.7 µM. Moreover, the TGI was 33 µM in test [7], more than 75 µM in [8] and more than 75 µM in [9].
Take `Clc1ccc(-n2nnc(C3=NCCCN3)c2-c2ccccc2)cc1`: the TGI in [1], in [2], in [3], in test [4], in test [5] and in [6] was more than 100 µM in each case. In addition, the TGI in [7], in [8] and in test [9] was more than 100 µM each time.
In the case of `COc1cc2c(c(OC)c1OC)-c1ccc(SC)c(=O)cc1[C@@H](NC(=O)c1ccc(OC(C)=O)cc1)CC2`, the TGI in [1] is 12.9 µM; in [2] it was more than 100 µM; in test [3], 0.0653 µM; in [4] it was more than 100 µM; in [5], 0.0813 µM; in test [7], 0.0357 µM. Also, the TGI in [9] was determined as 0.0544 µM. For the same compound, the GI50 in test [8] is 0.0214 µM.
Consider `CN(C)CC(/C(Cc1ccccc1)=N\NC(=O)c1ccncc1)c1ccccc1` (stereo not given), for which the TGI in test [1] was more than 100 µM; in test [2] it was 97.7 µM; in test [3], more than 100 µM; in [5], more than 100 µM; in test [6] it was 68.3 µM; in [7], more than 100 µM. Further, the TGI in test [8] is more than 100 µM.
With `Cc1cc(O)c(C(=O)CC2(O)C(=O)Nc3c(Cl)cc(Cl)cc32)c(=O)o1` (stereo not given), the TGI in [1], in [2], in [3], in test [4], in test [6] and in test [7] was more than 100 µM in each case. Moreover, the TGI in [8] and in [9] was more than 100 µM in each case.
For `CC(=O)OCC1OC(OC2CC3C(C)(C)C(OC(C)=O)CC[C@]3(C)C3CCC45CC4(CC[C@H]5C(C)CC(O)[C@@H](O)C(C)(C)O)[C@]23C)C(O)C(O)C1O` (stereo not given in full), the TGI in test [1] is 14.2 µM and 21.9 µM; in test [2], 14.3 µM and 29 µM; in test [3], 14.3 µM and 10.6 µM; in test [4] it was 45 µM and 10.5 µM; in [5], 13.9 µM; in test [6] it was 14.2 µM and 14.3 µM. The TGI was 13.5 µM and 18.9 µM in test [7]; 13.2 µM and 14.8 µM in [8]; 12.3 µM and 15.6 µM in [9]. For the same compound, the GI50 in test [2] is 15 µM; in test [3] it was 3.37 µM; in test [4] it was 0.0045 µM; in [6] it was 4.41 µM; in [8], 4.35 µM; in [9], 4.3 µM.
For `Cn1nc(-c2ccccc2)c(N=[N+]=[N-])cc1=O`, the TGI in test [1], in test [2], in test [3], in [4], in test [5] and in test [6] was more than 100 µM throughout. Moreover, the TGI in [7], in test [8] and in test [9] was more than 100 µM throughout.
Consider `COC1/C(=C\C(=O)OC(C)(C)C)c2ccccc2N1C(C)=O` (stereo not given), for which the TGI in [1], in [2], in [3], in test [4], in test [5] and in test [6] was more than 100 µM each time. For the same compound, the TGI in test [7], in test [8] and in [9] was more than 100 µM each time.
As to `O=C(CNC(=O)OCc1ccccc1)Oc1ccccc1`, the TGI in test [1], in test [2], in test [3], in [4], in test [5] and in test [6] was more than 100 µM throughout. Besides, the TGI in test [7] is more than 100 µM; in test [8], more than 42.7 µM; in test [9], more than 100 µM.
As to `COc1ccc(C(=O)C(c2ccc(OC)cc2)C2(O)C(=O)Nc3c(C)cc(Cl)cc32)cc1` (stereo not given), the TGI in test [1] is more than 100 µM; in test [2], more than 100 µM; in test [3], more than 100 µM; in [4], 54.5 µM; in test [5], more than 100 µM; in test [6], more than 100 µM. In addition, the TGI in test [7], in test [8] and in test [9] was more than 100 µM in each case.
Consider `CC1(CO)OC1COCc1ccccc1` (stereo not given), for which the TGI in test [1], in test [2], in test [3], in test [4], in test [5] and in test [6] was more than 100 µM each time. Besides, the TGI in [7], in test [8] and in test [9] was more than 100 µM in each case.
Consider `COC(=O)/C=C(C)/C=C/c1cc(C(C)=O)c(C)o1`, for which the TGI in test [1], in [2], in test [3], in test [4], in test [6] and in test [7] was more than 100 µM throughout. Moreover, the TGI in test [8] and in test [9] was more than 100 µM in each case.
